Data as given in ChEMBL document CHEMBL4431341, “Synthesis and anticancer activity of a hydroxytolan series” (Bioorg Med Chem Lett, 2016).
Activity calls are given as the source filed them. The calls are words filed in the database; no cut-off is given here.

Experiments:
[1] = system: DU-145; assay: Cytotoxicity against human DU145 cells after 24 hrs by MTT assay; assay type: functional; settings: DU-145, 24 h, read-out: CD50 (the source's name)
[2] = system: T-24; assay: Cytotoxicity against human T24 cells after 24 hrs by MTT assay; assay type: functional; settings: T-24, 24 h, read-out: CD50 (the source's name)
[3] = system: MDAH 2774; assay: Cytotoxicity against human MDAH 2774 cells after 24 hrs by MTT assay; assay type: functional; settings: MDAH 2774, 24 h, read-out: CD50 (the source's name)
[4] = Cytotoxicity against human MHRF cells after 24 hrs by MTT assay; assay type: cell-based; settings: read-out: CD50
[5] = system: DU-145; assay: Cytotoxicity against human DU145 cells after 48 hrs by MTT assay; assay type: functional; settings: DU-145, 48 h, read-out: CD50 (the source's name)
[6] = system: T-24; assay: Cytotoxicity against human T24 cells after 48 hrs by MTT assay; assay type: functional; settings: T-24, 48 h, read-out: CD50 (the source's name)
[7] = system: MDAH 2774; assay: Cytotoxicity against human MDAH 2774 cells after 48 hrs by MTT assay; assay type: functional; settings: MDAH 2774, 48 h, read-out: CD50 (the source's name)
[8] = Cytotoxicity against human MHRF cells after 48 hrs by MTT assay; assay type: cell-based; settings: read-out: CD50
[9] = system: DU-145; assay: Cytotoxicity against human DU145 cells after 72 hrs by MTT assay; assay type: functional; settings: DU-145, 72 h, read-out: CD50 (the source's name)
[10] = system: T-24; assay: Cytotoxicity against human T24 cells after 72 hrs by MTT assay; assay type: functional; settings: T-24, 72 h, read-out: CD50 (the source's name)
[11] = system: MDAH 2774; assay: Cytotoxicity against human MDAH 2774 cells after 72 hrs by MTT assay; assay type: functional; settings: MDAH 2774, 72 h, read-out: CD50 (the source's name)
[12] = Cytotoxicity against human MHRF cells after 72 hrs by MTT assay; assay type: cell-based; settings: read-out: CD50
[13] = system: DU-145; assay: Potency index, ratio of CD50 for RES to CD50 for test compound against human DU145 cells after 24 hrs; assay type: functional
[14] = system: T-24; assay: Potency index, ratio of CD50 for RES to CD50 for test compound against human T24 cells after 24 hrs; assay type: functional
[15] = system: MDAH 2774; assay: Potency index, ratio of CD50 for RES to CD50 for test compound against human MDAH 2774 cells after 24 hrs; assay type: functional
[16] = Ratio of CD50 for test compound to CD50 for RES against human MHRF cells after 24 hrs; assay type: ADME, cell-based
[17] = system: DU-145; assay: Potency index, ratio of CD50 for RES to CD50 for test compound against human DU145 cells after 48 hrs; assay type: functional
[18] = system: T-24; assay: Potency index, ratio of CD50 for RES to CD50 for test compound against human T24 cells after 48 hrs; assay type: functional
[19] = system: MDAH 2774; assay: Potency index, ratio of CD50 for RES to CD50 for test compound against human MDAH 2774 cells after 48 hrs; assay type: functional
[20] = Ratio of CD50 for test compound to CD50 for RES against human MHRF cells after 48 hrs; assay type: ADME, cell-based
[21] = system: DU-145; assay: Potency index, ratio of CD50 for RES to CD50 for test compound against human DU145 cells after 72 hrs; assay type: functional
[22] = system: T-24; assay: Potency index, ratio of CD50 for RES to CD50 for test compound against human T24 cells after 72 hrs; assay type: functional
[23] = system: MDAH 2774; assay: Potency index, ratio of CD50 for RES to CD50 for test compound against human MDAH 2774 cells after 72 hrs; assay type: functional
[24] = Ratio of CD50 for test compound to CD50 for RES against human MHRF cells after 72 hrs; assay type: ADME, cell-based
[25] = Selectivity index, ratio of CD50 against human MHRF cells to CD50 for human DU145 cells after 24 hrs
[26] = Selectivity index, ratio of CD50 against human MHRF cells to CD50 for human T24 cells after 24 hrs
[27] = Selectivity index, ratio of CD50 against human MHRF cells to CD50 for human MDAH 2774 cells after 24 hrs
[28] = Selectivity index, ratio of CD50 against human MHRF cells to CD50 for human DU145 cells after 48 hrs
[29] = Selectivity index, ratio of CD50 against human MHRF cells to CD50 for human T24 cells after 48 hrs
[30] = Selectivity index, ratio of CD50 against human MHRF cells to CD50 for human MDAH 2774 cells after 48 hrs
[31] = Selectivity index, ratio of CD50 against human MHRF cells to CD50 for human DU145 cells after 72 hrs
[32] = Selectivity index, ratio of CD50 against human MHRF cells to CD50 for human T24 cells after 72 hrs
[33] = Selectivity index, ratio of CD50 against human MHRF cells to CD50 for human MDAH 2774 cells after 72 hrs
[34] = Lipophilicity, log P of the compound; assay type: physicochemical; settings: octanol/water
[35] = system: DU-145; assay: Pro-oxidative activity in human DU145 cells assessed as increase in H2O2 mediated DCF formation at 25 to 100 uM preincubated with DCFH-DA for 30 mins followed by compound treatment for 3 hrs by fluorescence analysis; assay type: functional, cell-based
[36] = system: DU-145; assay: Cytotoxicity against human DU145 cells assessed as inhibition of cell viability at 2 to 500 uM after 24 hrs by MTT assay; assay type: functional, cell-based
[37] = system: DU-145; assay: Cytotoxicity against human DU145 cells assessed as inhibition of cell viability at 2 to 500 uM after 24 hrs in presence of CAT by MTT assay; assay type: functional, cell-based

Work on `Oc1ccc(C#Cc2cc(O)cc(O)c2)cc1` yielded a CC50 [1] of 55.7 µM, a CC50 [2] of 92.2 µM and a CC50 [3] of 54.1 µM. For the same compound, the CC50 at 24 h [4] was 295 µM, the CC50 [5] was 37.4 µM and the CC50 [6] was 41.1 µM. For the same compound, the CC50 [7] was 26.4 µM, the CC50 at 48 h [8] was 198 µM and the CC50 [9] was 20.3 µM. It also gave a CC50 [10] of 24.3 µM, a CC50 [11] of 20.4 µM and a CC50 at 72 h [12] of 175 µM. It also gave a Ratio [13] of 1.7, a Ratio [14] of 2.3 and a Ratio [15] of 0.7. It also gave a selectivity ratio at 24 h [16] of 0.5, a Ratio [17] of 1.6 and a Ratio [18] of 1.5. It also gave a Ratio [19] of 0.9, a selectivity ratio at 48 h [20] of 0.3 and a Ratio [21] of 1.4. The Ratio [22] was 1, the Ratio [23] was 0.7 and the Ratio [24] was 0.2. The “Selectivity Index” value [25] was 5.3, the “Selectivity Index” value [26] was 3.2 and the “Selectivity Index” value [27] was 5.5. The “Selectivity Index” value [28] was 5.3, the “Selectivity Index” value [29] was 4.8 and the “Selectivity Index” value [30] was 7.5. For the same compound, the “Selectivity Index” value [31] was 8.6, the “Selectivity Index” value [32] was 7.2 and the “Selectivity Index” value [33] was 8.6. It also gave a logP [34] of 1.85.
For `Oc1cc(O)cc(C#Cc2cc(O)cc(O)c2)c1`, the CC50 [1] was 57 µM, the CC50 [2] was 44.7 µM and the CC50 [3] was 31.4 µM. It also gave a CC50 at 24 h [4] of 156 µM, a CC50 [5] of 31.6 µM and a CC50 [6] of 27.3 µM. For the same compound, the CC50 [7] was 21.5 µM, the CC50 at 48 h [8] was 113 µM and the CC50 [9] was 17 µM. The CC50 [10] was 20.1 µM, the CC50 [11] was 16.8 µM and the CC50 at 72 h [12] was 66.9 µM. The Ratio [13] was 1.6, the Ratio [14] was 4.7 and the Ratio [15] was 1.7. For the same compound, the selectivity ratio at 24 h [16] was 1, the Ratio [17] was 1.8 and the Ratio [18] was 2.3. For the same compound, the Ratio [19] was 0.7, the selectivity ratio at 48 h [20] was 0.5 and the Ratio [21] was 5. It also gave a Ratio [22] of 1.1, a Ratio [23] of 0.9 and a Ratio [24] of 0.5. For the same compound, the “Selectivity Index” value [25] was 2.7, the “Selectivity Index” value [26] was 3.5 and the “Selectivity Index” value [27] was 5. For the same compound, the “Selectivity Index” value [28] was 3.6, the “Selectivity Index” value [29] was 4.1 and the “Selectivity Index” value [30] was 5.2. For the same compound, the “Selectivity Index” value [31] was 4, the “Selectivity Index” value [32] was 3.3 and the “Selectivity Index” value [33] was 4.
Compound `Oc1ccc(/C=C/c2cc(O)cc(O)c2)cc1` [RESVERATROL] has a CC50 [1] of 92.2 µM, a CC50 [2] of 210 µM and a CC50 [3] of 36.9 µM. It also gave a CC50 at 24 h [4] of 155 µM, a CC50 [5] of 58.2 µM and a CC50 [6] of 61.8 µM. It also gave a CC50 [7] of 23 µM, a CC50 at 48 h [8] of 50.9 µM and a CC50 [9] of 27.9 µM. The CC50 [10] was 22.7 µM, the CC50 [11] was 14.6 µM and the CC50 at 72 h [12] was 32 µM. For the same compound, the Activity [35] was “inactive”, the inhibition [36] was “inactive” and the inhibition [37] was “inactive”. For the same compound, the logP [34] was 1.85.
With `Oc1ccc(C#Cc2ccc(O)cc2)cc1` the CC50 [1] was 46.7 µM, the CC50 [2] was 82.6 µM and the CC50 [3] was 21.5 µM. It also gave a CC50 at 24 h [4] of 299 µM, a CC50 [5] of 12.6 µM and a CC50 [6] of 31.1 µM. It also gave a CC50 [7] of 10.5 µM, a CC50 at 48 h [8] of 194 µM and a CC50 [9] of 5.6 µM. It also gave a CC50 [10] of 8.5 µM, a CC50 [11] of 3.1 µM and a CC50 at 72 h [12] of 153 µM. It also gave a Ratio [13] of 2, a Ratio [14] of 2.5 and a Ratio [15] of 1.7. For the same compound, the selectivity ratio at 24 h [16] was 0.5, the Ratio [17] was 4.6 and the Ratio [18] was 2. For the same compound, the Ratio [19] was 2.2, the selectivity ratio at 48 h [20] was 0.3 and the Ratio [21] was 5. It also gave a Ratio [22] of 2.7, a Ratio [23] of 4.7 and a Ratio [24] of 0.2. The “Selectivity Index” value [25] was 6.4, the “Selectivity Index” value [26] was 3.6 and the “Selectivity Index” value [27] was 13.9. The “Selectivity Index” value [28] was 15.4, the “Selectivity Index” value [29] was 6.2 and the “Selectivity Index” value [30] was 18.5. For the same compound, the “Selectivity Index” value [31] was 27.3, the “Selectivity Index” value [32] was 18 and the “Selectivity Index” value [33] was 49.3. The Activity [35] was “Active”, the inhibition [36] was “Active” and the inhibition [37] was “inactive”. For the same compound, the logP [34] was 2.3.
